From PubChem BioAssay AID602273 (Broad Institute, 2012)
Calls of active or inactive are those of the source. How the calls were made is not given here.

Assay: rescue of alpha-synuclein yeast toxicity, dose response, S. cerevisiae, plate reader, cherry-pick (AID 602273)
Settings: S. cerevisiae alpha-synuclein toxicity rescue, OD600 growth, 24 h; at 12 µM (top of the series)

SMILES	growth rescue activity
O=C(NC1C(=O)NNC1c1ccccc1)c1ccccc1 (stereo unspecified)	8.13% (inactive)

Same assay, conditions: S. cerevisiae alpha-synuclein toxicity rescue, OD600 growth, 24 h; at 26 µM (top of the series)

SMILES	growth rescue activity
O=c1c2ccccc2[nH]c(=S)n1CCC1=CCCCC1	21.3% (inactive)
CCN1C(=O)CC(N2CCN(c3ccc(C(=O)c4ccccc4)cc3)CC2)C1=O (stereo unspecified)	-0.853% (inactive)
O=C1NCC2=C1C(c1ccc(Br)cc1)Nc1ccccc1N2 (stereo unspecified)	-8.45% (inactive)
Cn1c(=O)c(/C=C/c2ccc(F)cc2)nc2ccccc21	8.65% (inactive)
CC(C)OC(=O)c1ccc(COc2ccc3ccc(=O)oc3c2)o1	2.08% (inactive)
O=c1[nH]c2c(s1)C=Nc1ccccc1N2	4.6% (inactive)
C/C(Cn1cnc([N+](=O)[O-])n1)=N\NC(=O)c1ccccc1F	-2.85% (inactive)
C=CCn1c(C)cc(C(=O)CSc2nc(N)cc(N)n2)c1C	0.814% (inactive)
O=C(OCc1csc(-c2ccccc2)n1)c1cccs1	0.967% (inactive)
CCOC(=O)C1=NN(C(=O)c2ccccc2)C(O)(c2ccc(C)cc2)C1 (stereo unspecified)	10.9% (inactive)
COc1ccc(-c2nc3scc(-c4ccccc4)n3n2)cc1	-0.958% (inactive)
c1ccc(N2CC3CCc4ccccc4C3=N2)cc1 (stereo unspecified)	11.6% (inactive)
CCOC(=S)SCC(=O)Nc1nc(C)c(C)s1	0.308% (inactive)
Cc1c(/C=N/NC(=O)c2ccc(Br)o2)cnn1C	-2.43% (inactive)
O=C(CSc1nnc(-c2c[nH]c3ccccc23)n1-c1ccc(F)cc1)NCc1ccco1	0.096% (inactive)
Cc1nc2ccccc2nc(C)c1=NOCc1ccccc1Cl	0.053% (inactive)
COc1ccc(/C=C2/SC(=O)N(CCNC(=O)C3COc4ccccc4O3)C2=O)cc1 (stereo unspecified)	5.56% (inactive)
CC(=O)c1cccc(N(CC(=O)Nc2ccc(F)cc2F)S(C)(=O)=O)c1	2.96% (inactive)
CCOc1cccc(/C=C/c2ccc3cccc(O)c3n2)c1OC	-2.49% (inactive)
CCC1(C)N=C(N)Nc2nc3cc(C)c(C)cc3n21 (stereo unspecified)	-2.62% (inactive)
Cc1ccc(O)c(CNc2nccs2)c1	12% (inactive)
Cc1ccc(O)c(NC(=O)c2onc(C)c2Cl)c1	6.44% (inactive)
C=CCN1C(=O)C(Cc2ccc(OCC)cc2)SC1=Nc1ccc(C(=O)O)cc1 (stereo unspecified)	18.5% (inactive)
C[C@H](NC(=O)[C@@H]1CSC2c3ccccc3C(=O)N21)C(=O)NCCc1ccccc1 (stereo partly specified)	-5.08% (inactive)

SMILES	growth rescue activity
O=C(CSCc1ccc(Br)cc1)N1CCCC1	0.808% (inactive)
CCSc1nnc(NC(=O)c2cccnc2Cl)s1	-4.76% (inactive)
COc1ccc(C(=O)n2nc(C)cc2Nc2ccccc2)cc1	2.84% (inactive)
c1ccc2c(Nc3nnc(-c4ccncc4)s3)cccc2c1	-9.03% (inactive)
O=C1NC(=O)[C@]2(Cc3ccccc3N3CCN(c4ccccc4)CC32)C(=O)N1Cc1ccccc1 (stereo partly specified)	3.15% (inactive)
CC(=O)N1N=C(c2ccccc2)CC1c1ccccc1[N+](=O)[O-] (stereo unspecified)	2.51% (inactive)
COc1ccccc1C(=O)CSc1nnc(-c2ccco2)o1	-9.45% (inactive)
Cn1c(CO)cnc1SCC(=O)c1ccc(Cl)cc1	4.95% (inactive)
CN(CCC1CCCCO1)C(=O)CCc1nnc(CCCCc2ccccc2)o1 (stereo unspecified)	1.7% (inactive)
CN(Cc1ccccc1)C(=O)c1cc(-c2ccc(Br)cc2)on1	-17.2% (inactive)
CCN(CC)CCn1c2ccccc2c2nc3ccc([N+](=O)[O-])cc3cc21	0.822% (inactive)
O=C1NC(=S)S/C1=C/c1ccc(OC(=O)c2ccco2)cc1	9.87% (inactive)
O=C(/C=C/Sc1ccccc1)c1ccccc1	3.99% (inactive)
CC1(C)CC(=O)C2=C(C1)Nc1cc3c(cc1C2c1ccc2c(c1)OCO2)OCO3 (stereo unspecified)	11.9% (inactive)
Nc1nnc(SCc2c(F)cccc2Cl)s1	4.49% (inactive)
CC(=O)Nc1nnc(SCC(=O)c2ccc(F)cc2)s1	-0.765% (inactive)
O=C(Cc1cccs1)NCc1ccccc1Br	-5.14% (inactive)
Cc1cc(C(=O)N2CCN(c3ccccn3)CC2)c(C)o1	-0.518% (inactive)
CCOC(=O)C1(Cc2ccc(OC)cc2)CCN(C(=O)c2cc3ccccc3[nH]2)CC1	1.19% (inactive)
COc1ccc(CCNc2oc(-c3ccccc3OC)nc2C#N)cc1	1.38% (inactive)
Cc1ccc2cccnc2c1NC(=S)NC(=O)c1ccccc1	-4.6% (inactive)
Cc1ccc(C(=O)CNc2ccc(Cl)cc2)cc1	5.52% (inactive)
Nc1ccc(Sc2cnn(-c3ccccc3)c(=O)c2Cl)cc1	1.77% (inactive)
Cc1ccc(C2=Nc3ccccc3NC(C)(c3ccc(C)o3)C2)o1 (stereo unspecified)	0.617% (inactive)

SMILES	growth rescue activity
CNc1nc(Nc2ccc(C)c(Cl)c2)nc(N)c1[N+](=O)[O-]	-8.67% (inactive)
COc1ccc(NC(=O)COC(=O)/C=C/C(=O)OCC(=O)Nc2ccc(OC)c(Cl)c2)cc1Cl	3.29% (inactive)
Cc1[nH]n(-c2ccccc2)c(=O)c1C=NCCc1ccccc1	5.9% (inactive)
C/C(=N\NC(=O)c1ccoc1C)c1cccc2ccccc12	8.58% (inactive)
Cc1cc(C)nc(S/C=C/C(=O)c2ccccc2F)n1	1.06% (inactive)
O=c1[nH]c2ccccc2n1CCC1CCCCC1	8.15% (inactive)
Cc1nc(SCCOc2ccc(F)cc2)c2ccccc2n1	-1.07% (inactive)
O=C(CCC1CCCN(C(=O)c2ccc3cc[nH]c3c2)C1)NCc1ccc(F)c(F)c1 (stereo unspecified)	-2.77% (inactive)
Cc1[nH]c2ccccc2c1/C=C(\C#N)C(=O)NCC1CCCO1 (stereo unspecified)	4.73% (inactive)
Cc1cc(-c2nnc(CCC(=O)N(C)Cc3cccc4ccccc34)o2)no1	8.5% (inactive)
COc1ccc(OCc2nnnn2-c2ccccc2)cc1	-3.39% (inactive)
CC(OC(=O)/C=C/c1ccc2ccccc2n1)C(=O)NCc1ccccc1 (stereo unspecified)	3.64% (inactive)
O=C(NCCN1Cc2ccccc2C1=O)c1cccs1	-6.05% (inactive)
O=c1[nH][nH]c(-c2ccccc2O)c1C(C[N+](=O)[O-])c1ccccc1 (stereo unspecified)	0.55% (inactive)
COc1ccc2cc(/C=C/C(=O)N3CCN(CC(=O)N4CCCCCC4)CC3)ccc2c1	-2.63% (inactive)
COc1ccc2c(c1OC)C(=O)OC2Nc1nc(-c2ccccc2)cs1 (stereo unspecified)	3.17% (inactive)
O=C(O)CSc1nc2ccccc2nc1Cc1ccccc1F	5.3% (inactive)
COC(=O)C1CCN(C(=O)COC(=O)c2ccc(OC)c(S(=O)(=O)N3CCCc4ccccc43)c2)CC1	-1.07% (inactive)
Cc1ccc(CNC(=O)CSc2ccsc2[N+](=O)[O-])cc1	2.48% (inactive)
CCN(CC)CCCNC(=O)CSc1c2c(nc3cc(Cl)ccc13)CCCC2	3.73% (inactive)
CN(Cc1nnc(-c2ccc(F)cc2)o1)c1ccccc1	8.17% (inactive)
CC(C)CC(=O)Nc1ccc(N2CCOCC2)cc1	3.83% (inactive)
COC(=O)[C@@H](Cc1c[nH]c2ccccc12)NC(=O)c1ccc2c(c1)OCO2	0.758% (inactive)
CC(C)(CNC(=O)/C=C/c1ccc(F)cc1)CNC(=O)/C=C/c1ccc(F)cc1	0.36% (inactive)

SMILES	growth rescue activity
O=C(O)C1CCCCC1C(=O)Nc1ccc2c(c1)CCC2 (stereo unspecified)	-2.7% (inactive)
CC(=O)Cc1cc(O)c2ccccc2c1OC(=O)c1ccccc1	-0.443% (inactive)
CC(=O)c1ccc(NC(=O)CCCN2C(=O)/C(=C/C(C)=C/c3ccccc3)SC2=S)cc1	-5.11% (inactive)
Cc1ccc(CN(C)C(=O)C2CCC(=O)N(CCc3ccccc3)C2)o1 (stereo unspecified)	1.41% (inactive)
Cc1ccc(/C=C2\Oc3cc(OC(=O)N4CCOCC4)ccc3C2=O)cc1	-7.43% (inactive)
O=C1S/C(=C\c2ccc(N3CCOCC3)o2)C(=O)N1Cc1c(F)cccc1Cl	-0.523% (inactive)
CCCc1nc(SCC(=O)Nc2cc(C)on2)c2ccccc2n1	4.07% (inactive)
CC(C)(C)c1cc(NC(=O)CCSc2nnc3ccccn23)cc(C(C)(C)C)c1	3.55% (inactive)
Cc1ccc(N2C(=O)NC(=O)/C(=C\C=C\c3ccco3)C2=O)cc1C	1.5% (inactive)
Fc1ccccc1-c1nc2nc3ccccc3nc2n1CC1CCCO1 (stereo unspecified)	11.6% (inactive)
Cc1cc(C)n(CC(O)COc2ccc(Cl)cc2Cl)n1 (stereo unspecified)	9.05% (inactive)
CCCSc1nnc(Sc2nnnn2-c2ccccc2)s1	4.13% (inactive)
O=C(CC12CCC(CC1)C2)NCc1ccc2c(c1)OCO2	2.83% (inactive)
O=C(CSc1ccc(Cl)cc1)N1CCN(c2c(Cl)cccc2[N+](=O)[O-])CC1	-19.7% (inactive)
CC1(C)CC(=O)C2=C(C1)OC(N)=C(C#N)C2C#Cc1ccccc1 (stereo unspecified)	8.43% (inactive)
COC(=O)C(C)Sc1ncnc2c1nnn2-c1ccc(F)cc1 (stereo unspecified)	-1.99% (inactive)
O=C1C2CC=CCC2C(=O)N1Cc1nnc(-c2ccc(Cl)cc2)o1 (stereo unspecified)	-2.43% (inactive)
O=C(O)CC1=C(Nc2ccccc2)C(=O)N(c2ccccc2)C1c1ccc(Cl)cc1 (stereo unspecified)	7.05% (inactive)
CCCCC(=O)OCC(=O)c1[nH]c(C)c(C(=O)OCC)c1C	2.65% (inactive)
Cc1csc2nc(CCNS(=O)(=O)c3cccs3)cn12	3.48% (inactive)
Cc1ccc(N2C(=O)SC(N(CC(=O)O)c3ccc(C)cc3)C2=O)cc1 (stereo unspecified)	-2.3% (inactive)
COc1cccc(-c2nnc(SCc3nc4ccccc4[nH]3)n2N)c1	1.34% (inactive)
Cc1ccc(CN2CCN(CC(C)C)C(CCO)C2)s1 (stereo unspecified)	-1.18% (inactive)
